According to article PMC7092826 (Biochemical Pharmacology, 2008):
“And” between values parts separate entries of the source, which are not always exact repeats. Equal values may be shown once.

Assays:
[1] = molecular target: T1, SARS-CoV PLpro (Severe acute respiratory syndrome coronavirus, UniProt P0C6U8); experiment: biochemical; type: biochemical
[2] = molecular target: T1, SARS-CoV PLpro; type: biochemical
[3] = molecular target: T2, cathepsin K (Homo sapiens, UniProt P43235); type: biochemical
T2 sequence (P43235 115-329): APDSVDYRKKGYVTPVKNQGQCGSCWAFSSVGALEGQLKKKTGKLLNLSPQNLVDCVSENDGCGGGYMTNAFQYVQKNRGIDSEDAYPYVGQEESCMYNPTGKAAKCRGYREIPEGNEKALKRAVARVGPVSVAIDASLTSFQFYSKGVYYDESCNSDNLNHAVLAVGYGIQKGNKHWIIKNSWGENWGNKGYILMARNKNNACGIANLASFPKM

[4] = molecular target: cathepsin L (Homo sapiens, UniProt P07711); type: biochemical
Sequence of cathepsin L (P07711 114-333, species assumed): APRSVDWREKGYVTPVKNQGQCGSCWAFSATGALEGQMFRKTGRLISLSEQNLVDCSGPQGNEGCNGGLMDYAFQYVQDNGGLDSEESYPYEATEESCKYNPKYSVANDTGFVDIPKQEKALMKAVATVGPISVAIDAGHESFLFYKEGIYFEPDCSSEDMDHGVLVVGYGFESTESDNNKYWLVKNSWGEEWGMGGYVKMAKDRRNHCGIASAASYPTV

[5] = molecular target: T1, SARS-CoV PLpro; type: biochemical; remark: listed apart in the source
[6] = molecular target: T3, papain (Carica papaya, UniProt P00784); type: biochemical
T3 sequence (P00784 134-345): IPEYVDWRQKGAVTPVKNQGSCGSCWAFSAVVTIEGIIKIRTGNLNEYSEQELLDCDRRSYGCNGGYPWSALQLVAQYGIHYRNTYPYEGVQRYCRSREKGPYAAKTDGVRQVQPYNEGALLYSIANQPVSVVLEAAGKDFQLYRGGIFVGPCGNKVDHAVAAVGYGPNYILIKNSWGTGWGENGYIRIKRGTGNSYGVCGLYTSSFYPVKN

[7] = molecular target: T1, SARS-CoV PLpro; experiment: biochemical; type: biochemical; conditions: for Ki: Kis
[8] = molecular target: SARS-CoV 3CLpro (Severe acute respiratory syndrome coronavirus, UniProt P0C6U8); experiment: biochemical; conditions: read-out: residual activity of 3CLpro
[9] = molecular target: T1, SARS-CoV PLpro; experiment: biochemical; type: biochemical; conditions: for remaining activity at 200 µM: read-out: residual activity of PLpro
[10] = molecular target: cathepsin B (Homo sapiens, UniProt P07858); type: biochemical
[11] = molecular target: cathepsin S (Homo sapiens, UniProt P25774); type: biochemical
Sequence of cathepsin S (P25774 115-331): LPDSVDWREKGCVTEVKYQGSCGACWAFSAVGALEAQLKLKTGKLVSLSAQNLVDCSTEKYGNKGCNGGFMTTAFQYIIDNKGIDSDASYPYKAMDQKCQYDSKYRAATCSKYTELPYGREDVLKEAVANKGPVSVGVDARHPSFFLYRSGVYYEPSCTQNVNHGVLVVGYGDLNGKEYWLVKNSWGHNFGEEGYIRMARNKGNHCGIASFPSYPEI

Compound | inhibitory activity against PLpro [1] | inhibition of the deubiquitinating activity of PLpro [2] | IC50 [1] [µM] | inhibition of cathepsin K [3] | inhibition of cathepsin L [4] | enzymatic activity after gel filtration of the inhibited enzyme (reversibility) [5] | inhibition of papain [6] | inhibition pattern [7] | kcat [7] [s⁻¹] | Ki [7] | remaining activity at 200 µM [8] [%] | binding mechanism [9] | kmax [9] | kmax of inactivation [9] [ms^−1] | remaining activity at 200 µM [9] [%] | inhibition of cathepsin B [10] | inhibition of cathepsin S [11]
CSc1ncnc2nc[nH]c12 [compound 4, 6-Methyl-mercaptopurine] | devoid of inhibitory activity |  |  |  |  |  |  |  |  |  |  |  |  |  |  |  | 
Nc1nc2nc[nH]c2c(=S)[nH]1 [compound 2, 6-Thioguanine] |  | effectively inhibited | 5 ± 1.7 | not effective inhibitors | not effective inhibitors | restored | not effective inhibitors | competitive | 0.14 ± 0.02 | 13 ± 2.8 µM | 25 | slow-binding inhibitors | 9.2 ± 0.9 10^−4 s^−1 | 0.92 | < 5 | not effective inhibitors | not effective inhibitors
Sc1ncnc2nc[nH]c12 [compound 1, 6-Mercaptopurine] |  | effectively inhibited | 21.6 ± 1.8 | not effective inhibitors | not effective inhibitors | restored | not effective inhibitors | competitive | 0.13 ± 0.01 | 19 µM and 19.2 µM |  | slow-binding inhibitors | 1.2 ± 0.1 10^−4 s^−1 | 0.12 | < 5 | not effective inhibitors | not effective inhibitors
CCN1C(=O)C=CC1=O [compound 6, N-ethylmaleimide] |  |  | 4.4 ± 1 |  |  |  |  |  |  |  |  |  |  |  |  |  | 
O=c1[nH]cnc2nc[nH]c12 [compound 3, Hypoxanthine] | devoid of inhibitory activity |  |  |  |  |  |  |  |  |  |  |  |  |  |  |  | 
